The values that follow come from ChEMBL document CHEMBL3853298, “Total synthesis and in vitro bioevaluation of clavaminols A, C, H & deacetyl clavaminol H as potential chemotherapeutic and antibiofilm agents” (Eur J Med Chem, 2016).

The term IC50 denotes the concentration at which inhibition is half-maximal.

Assay type in all cases: functional, cell-based
Experiment [1] can be described thus: Cytotoxicity against human SKOV3 cells assessed as cell growth inhibition by MTT assay. The conditions noted are these: SK-OV-3. A general note: Tetrazolium dyes change colour on reduction, which living cells bring about.
Experiment [2] in a line: Cytotoxicity against human DU145 cells assessed as cell growth inhibition by MTT assay. The conditions noted are these: DU-145.
Experiment [3] can be described thus: Cytotoxicity against human HeLa cells assessed as cell growth inhibition by MTT assay.
The nature of experiment [4]: Cytotoxicity against human MCF7 cells assessed as cell growth inhibition by MTT assay.

As to `CCCCCCCCC[C@H](O)[C@@H](C)NC(C)=O` [CLAVAMINOL C], the half-maximal inhibitory concentration (IC50) in experiment [1] stood at 14.1 µM; in experiment [2], 18.3 µM; in experiment [3], 18.5 µM; in experiment [4], 16.3 µM.
